# Test results as given in the supplement of paper PMC8498969.
# Legend:
# HEK293 [1] = test: maximal inhibition of ZIKV NS1 production (% inhibition); higher = stronger antiviral effect
# Description: (§1)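 HEK293 cells in 1536-well plates were pre-treated with compound for 1 h, infected with ZIKV (MOI 1) for 24 h, and NS1 antigen (intra- plus extracellular) was measured by TR-FRET. Confirmation used 11-point 1:3 dilutions, and IC50 and maximal inhibition were fitted in GraphPad Prism.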
# HEK293 [2] = test: cytotoxicity IC50 (ATP content, uninfected cells); higher = less cytotoxic; conditions: infection: none
# HEK293 [3] = test: IC50 for inhibition of ZIKV NS1 production
# Description: as §1
SMILES,maximal inhibition (HEK293 [1]),cytotoxicity IC50 (HEK293 [2]) [µM],IC50 (HEK293 [3]) [µM]
O=C1NC(=O)[C@@H](c2cn3c4c(cccc24)CCC3)[C@@H]1c1c[nH]c2ccccc12,86,1.6,18
O=C(Nc1ccncc1)C(=O)c1cn(Cc2ccc(Cl)cc2)c2ccccc12,39,70,1.3
Cc1ccccc1C(=O)c1ccc(Nc2ccc(Br)cc2N)cc1Cl,68,> 100,40
CCN1/C(=C/C=C/c2sc3ccccc3[n+]2CC)Sc2ccccc21,71,1.2,50
COc1cc([C@@H]2c3cc4c(cc3[C@@H](O[C@@H]3O[C@@H]5CO[C@@H](c6cccs6)O[C@H]5[C@H](O)[C@H]3O)[C@H]3COC(=O)[C@H]23)OCO4)cc(OC)c1O,100,> 100,1.2
C[C@@H]1O[C@@H](O[C@H]2C[C@@H](O)[C@]3(CO)[C@H]4[C@H](O)C[C@]5(C)[C@@H](C6=CC(=O)OC6)CC[C@]5(O)[C@@H]4CC[C@]3(O)C2)[C@H](O)[C@H](O)[C@H]1O,102,0.19,0.17
CC(=O)O[C@@]12CO[C@@H]1C[C@H](O)[C@@]1(C)C(=O)[C@H](O)C3=C(C)[C@@H](OC(=O)[C@H](O)[C@@H](NC(=O)OC(C)(C)C)c4ccccc4)C[C@@](O)([C@@H](OC(=O)c4ccccc4)[C@H]21)C3(C)C,66,> 100,50
CC[C@H](CC#N)OC(=O)N[C@@H](C)c1cccc(NC(=O)Nc2ccc(-c3cnco3)c(OC)c2)c1,99,20,0.14
CO[C@@H]1[C@@H](OC)[C@H](C)[C@@](O)(CC(=O)O)O[C@H]1[C@H](C)[C@H]1O[C@@]2(CC[C@@](C)([C@H]3CC[C@@](C)([C@@H]4O[C@@H]([C@H]5O[C@](C)(O)[C@H](C)C[C@@H]5C)C[C@@H]4O[C@@H]4C[C@H](OC)[C@@H](OC)[C@H](C)O4)O3)O2)C[C@H](O)[C@H]1C,100,1.5,1.4
CC[C@@H](C(=O)[C@@H](C)[C@@H](O)[C@H](C)[C@@H]1O[C@@H]([C@@H](CC)C(=O)O)CC[C@@H]1C)[C@H]1O[C@]2(C=C[C@@H](O)[C@]3(CC[C@@](C)([C@H]4CC[C@](O)(CC)[C@H](C)O4)O3)O2)[C@H](C)C[C@@H]1C,106,27,17
CCOC(=O)C1=C(C)NC2=C(C(=O)CC(C)(C)C2)C1c1ccc(-c2ccccc2)cc1 (stereo not given),89,> 100,17
COc1cc2nc(-c3cc(F)ccc3O)nc(N[C@@H]3CNC[C@H]3C(C)(C)O)c2cc1OC,98,45,12
Nc1ccc(-c2ccc3ncc4ccc(=O)n(-c5cccc(C(F)(F)F)c5)c4c3c2)cn1,90,> 100,0.72
C[C@@H]1O[C@@H](O[C@@H]2C=C3CC[C@@H]4[C@H](CC[C@]5(C)[C@@H](c6ccc(=O)oc6)CC[C@]45O)[C@@]3(C)CC2)[C@H](O)[C@H](O)[C@H]1O,105,0.011,0.027
CCCCCCCCc1ccc(CCC(N)(CO)CO)cc1,102,> 100,14
OCCN1CCN(CCCN2c3ccccc3Sc3ccc(C(F)(F)F)cc32)CC1,84,> 100,25
CS(=O)(=O)N1CCN(Cc2cc3nc(-c4cccc5[nH]ncc45)nc(N4CCOCC4)c3s2)CC1,65,70,5.6
NC1(c2ccc(-c3nc4ccn5c(=O)[nH]nc5c4cc3-c3ccccc3)cc2)CCC1,103,4.4,23
COc1ccc(-c2ccc3ncc4c(c3c2)n(-c2ccc(N3CCNCC3)c(C(F)(F)F)c2)c(=O)n4C)cn1,102,20,1.6
CCCCc1ccc2[nH]c(NC(=O)OC)nc2c1,80,3,0.69
Nc1cc(C(F)(F)F)c(-c2cc(N3CCOCC3)nc(N3CCOCC3)n2)cn1,74,2.3,4.2
CCCCCC(=O)O[C@]1(C(C)=O)CC[C@H]2[C@@H]3CCC4=CC(=O)CC[C@]4(C)[C@H]3CC[C@@]21C,99,7.9,50
COc1cc2nc(N3CCN(C(=O)c4ccco4)CC3)nc(N)c2cc1OC,104,40,18
CC(C)(O)Cn1c(NC(=O)c2ccc(-c3cn[nH]c3)s2)nc2cc(CN3CCOCC3)ccc21,103,> 100,8.3
COc1cc(OC)c(/C=C/S(=O)(=O)Cc2ccc(OC)c(NCC(=O)O)c2)c(OC)c1,61,> 100,1.4

SMILES,maximal inhibition (HEK293 [1]),cytotoxicity IC50 (HEK293 [2]) [µM],IC50 (HEK293 [3]) [µM]
CC(C)c1ccc(Cn2ccc3c4c(N)nc(NC5CC5)nc4ccc32)cc1,106,78,3
COc1c(C)c2c(c(O)c1C/C=C(\C)CCC(=O)O)C(=O)OC2,106,> 100,0.54
O=C(Cc1ccc(-c2ccc(OCCN3CCOCC3)cc2)cn1)NCc1ccccc1,50,19,0.48
CC(NCc1ccc2c(c1)nc(NC(=O)c1ccc(-c3cn[nH]c3)s1)n2CC(C)(C)O)C(C)(C)C (stereo not given),101,> 100,9.6
CO/C1=C\C(C)=C\[C@@H](C)[C@@H](O)[C@@H](C)C/C(C)=C/C=C/[C@H](OC)[C@@H]([C@@H](C)[C@@H](O)[C@H](C)[C@@]2(O)C[C@@H](O)[C@H](C)[C@@H](C(C)C)O2)OC1=O,101,80,5.3
O[C@@H](CNC[C@H](O)[C@H]1CCc2cc(F)ccc2O1)[C@@H]1CCc2cc(F)ccc2O1,94,> 100,24
CC[C@@]1([C@@H]2O[C@@H]([C@H]3O[C@@](O)(CO)[C@H](C)C[C@@H]3C)C[C@@H]2C)CC[C@H]([C@]2(C)CC[C@]3(C[C@H](O)[C@@H](C)[C@@H]([C@@H](C)[C@@H](OC)[C@H](C)C(=O)O)O3)O2)O1,103,> 100,2.8
C[C@H]1CCC/C=C/[C@@H]2C[C@H](O)C[C@H]2[C@H](O)/C=C/C(=O)O1,99,> 100,0.43
CC(C)C[C@H](NC(=O)CNC(=O)c1cc(Cl)ccc1Cl)B(O)O,102,2.1,0.23
Cc1ccc([N+](=O)[O-])[c]2c1[O][Hg]2,107,9,14
O=C1[C@H](Cc2ccc(O)cc2)N2C(=O)CCN(C(=O)NCc3ccccc3)[C@H]2CN1Cc1cccc2ccccc12,103,> 100,13
CC(C)COCC(CN(Cc1ccccc1)c1ccccc1)N1CCCC1 (stereo not given),55,> 100,43
CC[C@@H]1[C@@H](C)O[C@@](O)([C@@H](C)[C@H](O)[C@H](C)[C@H]2OC(=O)/C=C/C=C/[C@H](C)[C@@H]([C@@H](C)[C@@H](O)[C@H](C)[C@@]3(O)C[C@@H](O[C@H]4C[C@H](O)[C@H](O)[C@H](C)O4)[C@H](CC)[C@@H](C)O3)OC(=O)/C=C/C=C/[C@@H]2C)C[C@H]1O[C@H]1C[C@H](O)[C@H](O)[C@H](C)O1,100,1.5,3.9
C1CCC(C(CC2CCCCN2)C2CCCCC2)CC1 (stereo not given),98,50,45
COc1c(OCCCN2CCOCC2)ccc2c3n(c(=NC(=O)c4cnc(N)nc4)nc12)CCN3,71,22,2.1
O=C(Nc1cc(C(F)(F)F)cc(C(F)(F)F)c1)c1cc(Cl)ccc1O,99,0.71,3.9
CS[C@H]1SC[C@H]2C(=O)N(C)[C@@H](C(C)C)C(=O)OC[C@@H](NC(=O)c3cnc4ccccc4n3)C(=O)N[C@@H](C)C(=O)N(C)[C@@H]1C(=O)N(C)[C@@H](C(C)C)C(=O)OC[C@@H](NC(=O)c1cnc3ccccc3n1)C(=O)N[C@@H](C)C(=O)N2C,98,> 100,0.017
CC(C)[C@]12O[C@H]1[C@@H]1O[C@]13[C@]1(O[C@H]1C[C@H]1C4=C(CC[C@@]13C)C(=O)OC4)[C@@H]2O,73,> 100,0.47
OC(c1cc(C(F)(F)F)nc2c(C(F)(F)F)cccc12)C1CCCCN1 (stereo not given),97,> 100,18
O=C(Nc1ccc([N+](=O)[O-])cc1Cl)c1cc(Cl)ccc1O,102,3.3,8.3
OC[C@H](Cc1ccccc1)Nc1nc(Oc2ccc3c(c2)CCC3)nc2c1ncn2Cc1ccc(-c2ccccc2)cc1,100,90,7.8
S=C(SSC(=S)N1CCCCC1)N1CCCCC1,86,0.097,0.87
Oc1c(Cl)cc(Cl)c2cccnc12,93,16,46
Cc1cc(Nc2cc(NC(=O)c3c(Cl)cccc3Cl)ccn2)nc(N)n1,97,70,35
Oc1cccc(-c2nc(N3CCOCC3)c3oc4ncccc4c3n2)c1,92,0.94,1.6
